This is an account of results in patent publication US7759399B2, “Pharmaceutical compositions” (priority 2002, dated 2010).

For series [1], the system named is 37RC cells. Put plainly: in vitro. In kind it is cell-based. Particulars: 24 h treatment, read-out: LC50 (50% lethal dose/concentration), Neutral Red. The procedure:
Cell viability was determined using the Neutral Red assay. 37RC cells were seeded at density of 6×10^4 cells/well in 24-well plates and incubated for 24 h. Confluent 37RC monolayers were treated with the test compounds at different dilutions for 24 h at 37° C. After incubation, the medium was removed and the cells were incubated with RPMI medium containing 40 μg/ml Neutral Red dye (500 μl/well). After 2 h at 37° C., the monolayers were washed with phosphate-buffered saline (PBS) and then with a solution containing 1% CaCl2 and 0.5% formaldehyde. After washing, a solution containing 1% acetic acid/50% ethanol was added to the monolayers (250 μl/well). After 10 min at room temperature, the absorbance was determined with a microplate reader (Victor 1420, Wallac) at 540 nm.

Series [2] concerns uninfected 37RC cells. Particulars: monkey.
Series [3] concerns NF-κB. Put plainly: NF-κB-dependent luciferase reporter gene assay, HeLa κB-transformed cells, TPA stimulated. In kind it is cell-based. Particulars: 8 h treatment, TPA 25 ng/ml 2 h after exposure, read-out: NF-κB, IC50 (concentration at which the compound halved the NF-κB activity). On the procedure: Method: HeLa cell clone 13B, stably transfected with a luciferase reporter plasmid controlled by the human hsp70 promoter, and HeLa κB-transformed cells, stably transfected with a luciferase reporter plasmid controlled by a synthetic NF-κB-STM construct, were maintained in DMEM medium supplemented with 10% FBS, L-glutamine (2 mM) and G418 (250 μg/ml) at 37° C. in a 5% CO2 humidified atmosphere.
Cells were seeded at a density of 4×10^4 cells/well in 96-well plates. After 18-20 h, the medium was removed and cells were treated for 8 h with the test compounds (100 μl) at the appropriate dilutions in serum-free medium. For the NF-κB-dependent reporter gene assay, cells were stimulated with TPA (25 ng/ml) 2 h after exposure to the compounds.
After incubation, the medium was removed and cells were lysed in 10 μl of lysis buffer. The luciferase activity was determined by adding 100 μl of substrate and measuring the release of light using a Victor 1420 microplate reader (Wallac, Finland).
(§1) The fragment Kpn I-BamH I from the pGL3 basic vector containing the luciferase gene (PROMEGA) was inserted in the pcDNA3 vector (INVITROGEN) digested with Bgl II-KpnI. (This digestion removes the CMV-promoter from pcDNA3.) The resulting new vector was digested with Kpn I-Hind III and a promoter containing a ‘5xNF-κB binding sites—TATA box’ sequence was inserted upstream of the luciferase gene. This vector has been named STM.
(§2) To obtain stable HeLa cell lines expressing the luciferase gene under the control of NF-κB, HeLa cells were transfected (using lipofectamine plus GIBCO) with the STM-Pvu I linearized vector, and selected for 20 days with G418 (800 μg/ml). After selection, the resistant HeLa cell pool was controlled (in quadruplicate samples) for luciferase activity after stimulation with TNFα, IL-1 and TPA.
The AC200/μM for HSF is the concentration at which the tested compound doubled the HSF activity in this assay. The IC50/μM for NF-κB is the concentration at which the tested compound halved the NF-κB activity in this assay.
(In general: A reporter such as luciferase makes a cellular process visible.)

Series [4] has as its system NF-κB. Particulars: same concentration (125-500 μM); cited from earlier work.
Series [5] has as its system Sendai virus. The experiment in a line: Sendai virus replication in 37RC cells (virus yield by HAU titration). Type of series: cell-based. Particulars: Respirovirus muris, 5 HAU/10^5 cells, virus yield at 24 hours after infection, read-out: ID50 (50% inhibitory dose/concentration), Sendai virus yield.
The test system of series [6] is HSF1. Particulars: concentration of 125-500 μM; cited from earlier work.
The test system of series [7] is NF-κB. The experiment in a line: EMSA of NF-κB DNA-binding activity in TPA-stimulated Jurkat T cells. In kind it is cell-based, Human. Particulars: Jurkat T cells treated 1 hour, then TPA 25 ng/ml, extracts after 3 hours; FIGS. 1(b)-6(b). The procedure:
Methods: Human lymphoblastoid Jurkat T cells were grown at 37° C. in a 5% CO2 atmosphere in RPM1 1640 medium (GIBCO BRL, Gaithersburg, Md.) supplemented with 10% fetal calf serum (FCS, Hyclone Europe Ltd, UK) 2 mM glutamine and antibiotics according to the method described by A. Rossi et al. (Proc. Natl. Acad. Sci. USA 94: 746-750, 1997). The test compounds were stored as a 100% ethanolic stock solution (100 mM) or in DMSO (100 mM) and diluted to the appropriate concentration in culture medium at the time of use. Cells were treated with different concentrations of test compound for 1 hour and then stimulated with 12-O-tetradecanoylphorbol-13-acetate (TPA, 25 ng/ml), which is a strong inducer of NF-κB. Control cells received an equal amount of control diluent. After 3 hours whole-cell extracts were prepared and subjected to analysis of DNA-binding activity by EMSA (Electrophoretic Mobility Shift Assay) for detection of HSF or NF-κB activation, according to the method described by A. Rossi et al. (Proc. Natl. Acad. Sci. USA 94: 746-750, 1997).
Specificity of protein-DNA complexes was verified by immunoreactivity with polyclonal antibodies specific for p65 (Rel A) or for HSF-1, for NF-κB and HSF respectively. Quantitative evaluation of NF-κB and HSF-DNA complex formation was determined by Molecular Dynamics Phosphorimager (MDP) analysis and was expressed in arbitrary units, as described in A. Rossi et al. (J. Biol. Chem. 273: 16446-16452, 1998). The results from representative experiments are shown in FIGS. 1(b), 2(b), 3(b), 4(b), 5 and 6(b) for compounds CTM-50, CTM-49, CTM-36, CTM-30, CTC-130 and CTC-109, as identified above.
A general note: A gel shift assay detects complexes by their altered migration in electrophoresis.

Series [8] relates to uninfected 37RC cells. Put plainly: Toxicity to uninfected cells, determined visually by microscopy (TD100).
The conditions of series [9]: doses from 30 μg/kg/min; cited from earlier work.
Series [10] concerns NF-κB. Put plainly: Luciferase activity of G418-resistant HeLa cell pool transfected with NF-κB-LUC after stimulation. In kind it is cell-based. Particulars: NF-κB-LUC (STM vector), quadruplicate samples, control 1369±149.
Excerpt: as §1, §2

Read-outs that look alike come from different tables or passages of the source. Some results are limits rather than exact numbers.

Turning to `CC(C)(C)C(=O)O[C@H]1[C@H](Sc2ccc3ccccc3c2)CC(=O)C1(C)C` (stereo in doubt) [CTM-192, 2,2-dimethylpropionic acid (1R,5R)-2,2-dimethyl-5-(naphthalen-2-ylsulfanyl)-3-oxocyclopentyl ester], the CC50 in series [1] came out at 22 µM. For the same compound, the “TD100 (dose or concentration at which the compound was 100% toxic to uninfected cells)” value in [2] amounted to 50 µM. Further, the IC50 in series [3] came to 28 µM.
On to `O=C1C=CCC1` [CTC-1, cyclopent-2-en-1-one, reference compound], for which, in [4], the “block of NF-κB activation by chemical or physiological inducers, result in words” value was “able to block NF-κB activation”. Besides, the “TD100 (dose or concentration at which the compound was 100% toxic to uninfected cells)” value in series [2] is over 500 µM. For the same compound, the IC50 in [5] amounted to 90 µM. Besides, the “HSF1 activation, result in words” value in [6] was “able to activate HSF1”.
Turning to `COC(=O)[C@H](CSC1C=CC(=O)C1)NC(=O)OC(C)(C)C` (stereo partly drawn) [CTC-109], in [7], the “NF-κB-DNA complex formation (EMSA), result in words” value (from here on “NF-κB-DNA complex formation (EMSA)”) was “inhibitors of NF-κB”. For the same compound, the “TD100 (dose or concentration at which the compound was 100% toxic to uninfected cells)” value in series [2] was 500 µM. In addition, in [5] (24 h), the IC50 came to 3 µM.
With `COC(=O)[C@H](CSC1C=C(C(SC[C@H](NC(=O)OC(C)(C)C)C(=O)OC)C(C)C)C(=O)C1)NC(=O)OC(C)(C)C` (stereo partly drawn) [CTC-130], in series [7], the “NF-κB-DNA complex formation (EMSA)” value is recorded as “inhibitors of NF-κB”.
`COC(=O)[C@H](CSC1CC(=O)C[C@@H]1O[Si](C)(C)C(C)(C)C)NC(=O)OC(C)(C)C` (stereo partly drawn) [CTM-36]: the “TD100 (dose or concentration at which the compound was 100% toxic to uninfected cells)” value in [8] is over 500 µM. Moreover, in series [7], the “NF-κB-DNA complex formation (EMSA)” value is recorded as “inhibitors of NF-κB”. Further, the IC50 in series [5] turned out to be 4 µM.
With `COC(=O)[C@H](CSC1CCC(=O)C1)NC(=O)OC(C)(C)C` (stereo partly drawn) [CTM-49], the “NF-κB-DNA complex formation (EMSA)” value in series [7] is on record as “inhibitors of NF-κB”. Also, the “TD100 (dose or concentration at which the compound was 100% toxic to uninfected cells)” value in [2] was over 500 µM. The IC50 in series [5] (24 h) worked out at 20 µM.
The corresponding values for `COC(=O)[C@H](CSC1=CC(=O)CC1)NC(=O)OC(C)(C)C` [CTM-50] are “inhibitors of NF-κB”, over 500 µM and 10 µM.
With `CCCCC[C@H](O)/C=C/[C@H]1C=CC(=O)[C@@H]1CCCCCCC(=O)O` [Prostaglandin A1], the “effect on blood pressure” value in [9] is listed as “dose-dependant falls in blood pressure”.
As for `CCCCC[C@H](O)/C=C/[C@H]1[C@H](O)CC(=O)[C@@H]1CCCCCCC(=O)O` [Prostaglandin E1], in series [9], the “effect on blood pressure” value is given as “dose-dependant falls in blood pressure”.
In turn, `CCCCCCCCCCCCCC(=O)O[C@@H]1[C@@H](C)[C@@]2(O)[C@@H](C=C(CO)C[C@]3(O)C(=O)C(C)=C[C@@H]23)[C@@H]2C(C)(C)[C@]12OC(C)=O` [TPA, 12-O-tetradecanoylphorbol-13-acetate] showed a luciferase activity in [10] of 7181±444.
The same measure, in the same setting: the figure for TNFα is 6111±1231.
